According to patent US7132420B2, “Aspartic protease inhibitors” (The United States of America as represented by the …, priority 1999, dated 2006):
Like-named read-outs stand apart in the source and are kept apart here.

Experiments:
[1] = target: HIV-1 protease (Human immunodeficiency virus type 1 group M subtype B, UniProt P04585); assay: HIV protease assay (Ki); format: biochemical; conditions: for HIV-1 protease % inhibition: Table 1 Ki column
Excerpt: (§1) This example illustrates the HIV-1 protease inhibition activity (Ki), HIV-1 antiviral data (EC50), and the toxicity against normal cells (IC50), for particular compounds of formula (I). The HIV protease assay was done according to the protocol described in Kageyama et al, Antimicrob. Agents Chemother., 37, 272 (1993). The HIV antiviral assay was done according to the protocol described in Weislow et al., J. National Cancer Inst. 81, 577 (1989).
(§2) The HIV protease assay was done according to the protocol described in Example 35. The plasmepsin II assay was done according to the protocol used in Silva et al., Proc. Nat. Acad. Sci. USA, 93, pp. 10034–10039, September 1996 (Biochemstry). The cathepsin D assay was done according to the protocol described in Gulnik et al., FEBS Letters, 413, 379–384 (1997). The compounds illustrated in Table 2 are of the general formula (II), as described in Example 35.

[2] = system: HIV-1; assay: HIV antiviral assay (EC50); format: cell-based
Excerpt: The HIV protease assay was done according to the protocol described in Kageyama et al, Antimicrob. Agents Chemother., 37, 272 (1993). The HIV antiviral assay was done according to the protocol described in Weislow et al., J. National Cancer Inst. 81, 577 (1989).

[3] = system: normal cells; assay: toxicity against normal cells (IC50); format: cell-based
Excerpt: as §1

[4] = target: plasmepsin II (Plasmodium falciparum, UniProt P46925); assay: biochemical; format: biochemical; conditions: Table 2; read-out: Pls II Ki
Chain of plasmepsin II (P46925 125-453): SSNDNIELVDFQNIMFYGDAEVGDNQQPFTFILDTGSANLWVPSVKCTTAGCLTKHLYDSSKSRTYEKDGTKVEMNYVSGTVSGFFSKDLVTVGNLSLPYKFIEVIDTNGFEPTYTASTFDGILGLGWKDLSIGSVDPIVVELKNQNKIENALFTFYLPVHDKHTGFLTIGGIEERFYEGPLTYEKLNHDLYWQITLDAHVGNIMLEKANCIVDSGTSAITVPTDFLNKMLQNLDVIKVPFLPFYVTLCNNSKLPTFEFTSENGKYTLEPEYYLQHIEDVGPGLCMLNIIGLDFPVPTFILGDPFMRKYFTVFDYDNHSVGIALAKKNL
Excerpt: as §2

[5] = target: cathepsin D (Homo sapiens, UniProt P07339); assay: cathepsin D assay (Ki); format: biochemical; conditions: Table 2; read-out: Cath D Ki
Chain of cathepsin D (P07339 65-412): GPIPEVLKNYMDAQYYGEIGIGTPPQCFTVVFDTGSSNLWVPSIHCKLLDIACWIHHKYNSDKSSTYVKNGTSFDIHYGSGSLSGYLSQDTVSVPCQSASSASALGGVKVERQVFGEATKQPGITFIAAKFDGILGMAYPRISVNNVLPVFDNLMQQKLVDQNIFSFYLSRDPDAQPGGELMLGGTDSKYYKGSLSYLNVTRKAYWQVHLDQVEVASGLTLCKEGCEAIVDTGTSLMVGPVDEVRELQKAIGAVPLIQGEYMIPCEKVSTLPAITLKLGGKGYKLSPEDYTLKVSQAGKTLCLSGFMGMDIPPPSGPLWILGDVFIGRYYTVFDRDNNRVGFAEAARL
Excerpt: as §2

[6] = Table 1, in nM, read-out: HIV-1 Ki
[7] = Human immunodeficiency virus 1, Table 1

Row | SMILES | EC50 ([2]; Table 1) | IC50 ([3]; Table 1) | Ki ([1]; Table 1, read-out: HIV-1 Ki) | further results
1 | CC(C)(C)OC(=O)N[C@@H](Cc1ccccc1)C[C@H](O)[C@H](Cc1ccccc1)NC(=O)OCc1ccccc1 [(53), reference compound] | > 10000 nM | > 100000 nM | – | Ki [1, 6]: 1 nM
2 | Cc1cccc(C)c1OCC(=O)N[C@@H](CC(C)C)C[C@H](O)[C@H](Cc1ccccc1)NC(=O)O[C@H]1CCOC1 [(41), (2S,3S,5S)-5-[N-[2-(2,6-dimethylphenoxy)acetyl]amino]-2-[N-(3S-terahydrofuranyloxycarbonyl]amino]-3-hydroxy-7-methyl-1-phenyloctane] | > 1000 nM | > 100000 nM | 0.222 nM | –
3 | Cc1cccc(C)c1OCC(=O)N[C@@H](Cc1ccccc1)[C@@H](O)C[C@H](CC(C)C)NC(=O)OCc1cncs1 [(57), (2S,3S,5S)-2-[N-[2-(2,6-dimethylphenoxy)acetyl]amino]-5-[N-[(thiazol-5-yl-methoxy)carbonyl]amino]-3-hydroxy-7-methyl-1-phenyloctane] | – | 10000 nM | – | Ki [1]: 0.094 nM; EC50 [2, 7]: 1000 nM
4 | Cc1cccc(C)c1OCC(=O)N[C@@H](CC(C)C)C[C@H](O)[C@H](Cc1ccccc1)NC(=O)c1cccc(O)c1C [(42), (2S,3S,5S)-5-[N-[2-(2,6-dimethylphenoxy)acetyl]amino]-2-[N-(3-hydroxy-2-methylbenzoyl)amino]-3-hydroxy-7-methyl-1-phenyloctane] | – | > 100000 nM | – | Ki [1]: 0.311 nM; EC50 [2, 7]: 750 nM
5 | Cc1cccc(C)c1OCC(=O)N[C@@H](Cc1ccccc1)[C@@H](O)C[C@H](CC(C)C)NC(=O)C1CCN(C(=O)OCc2ccccc2)CC1 [(48)] | – | – | – | Ki [1, 6]: 113 nM
6 | Cc1cccc(C)c1OCC(=O)N[C@@H](Cc1ccccc1)[C@@H](O)C[C@H](CC(C)C)NC(=O)[C@H](C)NC(=O)OCc1ccccc1 [(56), (2S,3S,5S)-5-[N-[N′-(benzyloxycarbonyl)alaninyl]amino]-2-[N-[2-(2,6-dimethylphenoxy)acetyl]amino]-3-hydroxy-7-methyl-1-phenyloctane] | 1000 nM | > 100000 nM | 0.195 nM | –
7 | CC(C)C[C@@H](C[C@H](O)[C@H](Cc1ccccc1)NC(=O)[C@H](Cc1ccccc1)NC(=O)OCc1ccccc1)NC(=O)c1cccc(O)c1 [(67)] | – | – | – | HIV-1 EC50 (μM) ([2]; Table 1): not active; Ki [4]: 17 nM
8 | Cc1cccc(C)c1OCC(=O)N[C@@H](Cc1ccccc1)[C@@H](O)C[C@H](Cc1ccccc1)NC(=O)[C@H](C(C)C)N1CCCNC1=O [(24), reference compound] | 41 nM | > 100000 nM | 0.013 nM | Ki ([1]; Table 2, read-out: HIV-1 Ki): 0.012 nM; EC50 ([2]; Table 2): 41 nM; IC50 ([3]; Table 2): > 100000 nM; Ki [5]: 1960 nM; Ki [4]: 3500 nM
9 | Cc1cccc(C)c1OCC(=O)N[C@@H](Cc1ccccc1)[C@@H](O)C[C@H](CC(C)C)NC(=O)[C@@H]1CCNC(=O)N1 [(29), (2S,3S,5S)-2-[N-[2-(2,6-dimethylphenoxy)acetyl]amino]-5-[N-[2S-(2-oxopyrimidinyl)-4-carbonyl]amino]-3-hydroxy-7-methyl-1-phenyloctane] | – | – | – | Ki [1, 6]: 16 nM; Ki ([1]; Table 2, read-out: HIV-1 Ki): 0.16 nM; HIV-1 EC50 (μM) ([2]; Table 1): in-active; HIV-1 EC50 (μM) ([2]; Table 2): notactive; Ki [5]: 305 nM; Ki [4]: 3500 nM
10 | COc1ccc(S(=O)(=O)N[C@H](C(=O)N[C@@H](CC(C)C)C[C@H](O)[C@H](Cc2ccccc2)NC(=O)COc2c(C)cccc2C)C(C)C)cc1 [(54)] | 200 nM | 84000 nM | 0.0068 nM | –
11 | CC(C)C[C@@H](C[C@H](O)[C@H](Cc1ccccc1)NC(=O)[C@H](C)NC(=O)OCc1ccccc1)NC(=O)c1cccc(O)c1 [(61)] | > 10000 nM | – | – | Ki [1, 6]: 2 nM
12 | CC(=O)N[C@H](C(=O)N[C@@H](CC(C)C)C[C@H](O)[C@H](Cc1ccccc1)NC(=O)COc1c(C)cccc1C)C(C)C [(50)] | 300 nM | > 100000 nM | 0.014 nM | –
13 | COc1ccc(C(=O)N[C@H](C(=O)N[C@@H](CC(C)C)C[C@H](O)[C@H](Cc2ccccc2)NC(=O)COc2c(C)cccc2C)C(C)C)cc1 [(52), (2S,3S,5S)-2-[N-[2-(2,6.-dimethylphenoxy)acetyl]amino]-5-[N-[[N′-(p-methoxyphenylcarbonyl)]valinyl]amino]-3-hydroxy-7-methyl-1-phenyloctane] | 200 nM | > 93000 nM | 0.03 nM | –
14 | CC(C)C[C@@H](C[C@H](O)[C@H](Cc1ccccc1)NC(=O)OCc1ccccc1)NC(=O)[C@H](C(C)C)N1CCCNC1=O [(18)] | 600 nM | > 100000 nM | 0.065 ± 0.016 nM | –
15 | CC(C)C[C@@H](C[C@H](O)[C@H](Cc1ccccc1)NC(=O)CNC(=O)OCc1ccccc1)NC(=O)c1cccc(O)c1 [(59)] | > 10000 nM | – | – | Ki [1, 6]: 108 nM
16 | Cc1cccc(C)c1OCC(=O)N[C@@H](Cc1ccccc1)[C@@H](O)C[C@H](CC(C)C)NC(=O)c1cccc(O)c1 [(58)] | 2000 nM | 10000 nM | – | Ki [1, 6]: 1.2 nM

Row | SMILES | EC50 ([2]; Table 1) | IC50 ([3]; Table 1) | Ki ([1]; Table 1, read-out: HIV-1 Ki) | further results
17 | Cc1cccc(C)c1OCC(=O)N[C@@H](Cc1ccccc1)[C@@H](O)C[C@H](CC(C)C)NC(=O)[C@@H](NS(C)(=O)=O)C(C)C [(51), (2S,3S,5S)-2-[N-[2-(2,6-dimethylphenoxy)acetyl]amino]-5-[N-[[N′-(methylsulfonyl)]valinyl]amino]-3-hydroxy-7-methyl-1-phenyloctane] | 700 nM | > 100000 nM | 0.034 nM | –
18 | Cc1cccc(C)c1OCC(=O)NC(Cc1ccccc1)C(O)CC(CC(C)C)NC(=O)C(C(C)C)N1CCCN(C)C1=O (centres unmarked) [(68)] | – | 5000 nM | – | –
19 | Cc1cccc(C)c1OCC(=O)N[C@@H](Cc1ccccc1)[C@@H](O)C[C@H](CC(C)C)NC(=O)CC(C)C [(55)] | 10000 nM | > 100000 nM | – | Ki [1, 6]: 1.5 nM
20 | CC(C)C[C@@H](C[C@H](O)[C@H](Cc1ccccc1)NC(=O)[C@@H](NC(=O)OCc1ccccc1)C(C)C)NC(=O)c1cccc(O)c1 [Compound (60)] | 910 nM | > 10000 nM | 0.198 nM | Ki ([1]; Table 2, read-out: HIV-1 Ki): 0.198 nM; Ki [4]: 2.4 nM
21 | Cc1cccc(C)c1OCC(=O)N[C@@H](Cc1ccccc1)[C@@H](O)C[C@H](CC(C)C)NC(=O)OC(C)(C)C [(15), (2S,3S,5S)-5-[N-tert-butyloxycarbonylamino]-2-[N-[2-(2,6-dimethylphenoxy)acetyl]amino]-3-hydroxy-7-methyl-1-phenyloctane] | – | – | – | Ki [1]: 0.009 nM; Ki ([1]; read-out: HIV-1 Ki, Table 2): 0.009 nM; Ki [5]: 6.1 nM; Ki [4]: 210 nM
22 | CC[C@H](C)[C@H](NC(=O)OCc1ccccc1)C(=O)N[C@@H](Cc1ccccc1)[C@@H](O)C[C@H](CC(C)C)NC(=O)c1cccc(O)c1 [(62)] | 1400 nM | > 10000 nM | 0.157 nM | Ki ([1]; Table 2, read-out: HIV-1 Ki): 0.157 nM; Ki [4]: 1.2 nM
23 | Cc1cccc(C)c1OCC(=O)N[C@@H](CC(C)C)C[C@H](O)[C@H](Cc1ccccc1)NC(=O)OCc1ccccc1 [(40), (2S,3S,5S)-2-[N-(benzyloxycarbonyl)amino]-5-[N-[2-(2,6-dimethylphenoxy)acetyl]amino]-3-hydroxy-7-methyl-1-phenyloctane] | – | – | 0.197 nM | HIV-1 EC50 (μM) ([2]; Table 1): inactive
24 | Cc1cccc(C)c1OCC(=O)N[C@@H](Cc1ccccc1)[C@@H](O)C[C@H](CC(C)C)NC(=O)[C@@H](N)C(C)C [(49)] | 8000 nM | > 100000 nM | – | Ki [1, 6]: 4 nM
25 | Cc1c(O)cccc1C(=O)N[C@@H](Cc1ccccc1)[C@@H](O)C[C@H](CC(C)C)NC(=O)[C@H](C(C)C)N1CCCNC1=O [(37), (2S,3S,5S)-2-[N-(3-hydroxy-2-methylbenzoyl)amino]-5-[N-[[3-methyl-2S-(2-oxo-tetrahydropyrimidin-1-yl)]butyryl]amino]-3-hydroxy-7-methyl-1-phenyloctane] | 200 nM | > 10000 nM | 0.104 ± 0.01 nM | –
26 | CC(C)C[C@@H](C[C@H](O)[C@H](Cc1ccccc1)NC(=O)N1CCOCC1)NC(=O)[C@H](C(C)C)N1CCCNC1=O [(36)] | 2000 nM | > 100000 nM | 0.571 nM | –
27 | CC(C)C[C@@H](C[C@H](O)[C@H](Cc1ccccc1)NC(=O)OCc1ccccc1)NC(=O)[C@@H](C(C)C)N1CCCNC1=O [(33)] | – | – | – | HIV-1 protease % inhibition ([1]; @0.5 μM): 38%; HIV-1 protease % inhibition ([1]; @1 μM): 65%
28 | Cc1cccc(C)c1OCC(=O)N[C@@H](Cc1ccccc1)[C@@H](O)C[C@H](CC(C)C)NC(=O)[C@H](CC(N)=O)NC(=O)c1ccc2ccccc2n1 [(65)] | – | – | 0.0382 nM | –
29 | Cc1cccc(C)c1OCC(=O)N[C@@H](Cc1ccccc1)[C@@H](O)C[C@H](CC(C)C)NC(=O)N1CCOCC1 [(27)] | > 50000 nM | – | – | Ki [1, 6]: 37 nM; Ki ([1]; Table 2, read-out: HIV-1 Ki): 0.37 nM; EC50 ([2]; Table 2): > 50000 nM; Ki [5]: 6.1 nM; Ki [4]: 76 nM
30 | Cc1cccc(C)c1OCC(=O)N[C@@H](Cc1ccccc1)[C@@H](O)C[C@H](CC(C)C)NC(=O)C1CCCN(C(=O)OCc2ccccc2)C1 (some centres unmarked) [(47)] | – | – | 1.5 ± 0.066 nM | –
31 | CC(C)CC(CC(O)C(Cc1ccccc1)NC(=O)C(C(C)C)N1CCCNC1=O)NC(=O)OC(C)(C)C (centres unmarked) [(44)] | – | – | 1.49 nM | HIV-1 EC50 (μM) ([2]; Table 1): in-active
